# In the supplement of paper PMC10307832:
# How the values were obtained:
# Test in all cases: relative viability (nuclei count vs DMSO), 5 days (fraction); higher = more cells survive
# [1] = compound: C1CC(C1)(C(=O)O)C(=O)O.[NH2-].[NH2-].[Pt+2] [Carboplatin] + COc1cc2c(Oc3ccc(NC(=O)C4(C(=O)Nc5ccc(F)cc5)CC4)cc3F)ccnc2cc1OCCCN1CCOCC1 [Foretinib] (partner 0.25 µM)
# How it was run: (§1)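 Dosing by pin tool came one day after lung cancer cell lines were seeded in 1536-well plates, using either one drug or a fixed anchor-drug dose plus five library-drug doses (not always all listed) in √10 steps. After 5 days, nuclei were counted on 4× images. Relative viability is treated-well nuclei count divided by vehicle-well nuclei count, and values are medians of duplicate plates.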
# [2] = compound: C1CC(C1)(C(=O)O)C(=O)O.[NH2-].[NH2-].[Pt+2] [Carboplatin] + C[C@]1(O)C[C@@H](c2nc(-c3ccc4ccc(-c5ccccc5)nc4c3)c3c(N)nccn32)C1 [Linsitinib] (partner 1 µM)
# How it was run: as §1
# [3] = compound: NS(=O)(=O)OC[C@@H]1C[C@@H](n2ccc3c(N[C@H]4CCc5ccccc54)ncnc32)C[C@@H]1O [MLN4924] + C[C@]1(O)C[C@@H](c2nc(-c3ccc4ccc(-c5ccccc5)nc4c3)c3c(N)nccn32)C1 [Linsitinib] (partner 1 µM)
# How it was run: as §1
# [4] = compound: NS(=O)(=O)OC[C@@H]1C[C@@H](n2ccc3c(N[C@H]4CCc5ccccc54)ncnc32)C[C@@H]1O [MLN4924] + Cc1cc(Nc2cc(N3CCN(C)CC3)nc(Sc3ccc(NC(=O)C4CC4)cc3)n2)n[nH]1 [Tozasertib] (partner 0.1 µM)
# How it was run: as §1
Cell Line,relative viability ([1]; first compound 0.08 µM),relative viability ([1]; first compound 0.253 µM),relative viability ([1]; first compound 0.8 µM),relative viability ([1]; first compound 2.53 µM),relative viability ([1]; first compound 8 µM),relative viability ([2]; first compound 0.08 µM),relative viability ([2]; first compound 0.253 µM),relative viability ([2]; first compound 0.8 µM),relative viability ([2]; first compound 2.53 µM),relative viability ([2]; first compound 8 µM),relative viability ([3]; first compound 0.04 µM),relative viability ([3]; first compound 0.1265 µM),relative viability ([3]; first compound 0.4 µM),relative viability ([3]; first compound 1.265 µM),relative viability ([3]; first compound 4 µM),relative viability ([4]; first compound 0.04 µM),relative viability ([4]; first compound 0.1265 µM),relative viability ([4]; first compound 0.4 µM),relative viability ([4]; first compound 1.265 µM),relative viability ([4]; first compound 4 µM)
201T,1.28,1.05,0.917,0.867,0.618,1.06,1.04,0.976,1,0.962,1.22,1.29,1.17,0.481,0.505,1.07,0.737,0.697,0.301,0.319
A549,1.03,0.991,0.888,0.768,0.741,0.715,0.717,0.666,0.522,0.446,0.635,0.626,0.496,0.0571,0.047,,,,,
A-427,1.16,1.15,1.03,0.992,1.16,1.07,1.08,1.03,1.02,1.12,0.686,0.381,0.315,0.222,0.217,0.168,0.164,0.128,0.131,0.133
ABC-1,1.28,1.09,1.1,0.769,0.398,0.633,0.939,0.779,0.864,0.703,0.875,0.795,0.618,0.238,0.218,0.154,0.155,0.144,0.132,0.149
BEN,0.778,0.654,0.69,0.658,0.589,1.01,1.05,0.722,0.748,0.777,0.765,0.464,0.319,0.17,0.188,0.411,0.308,0.35,0.228,0.222
CAL-12T,1.1,1.06,1.2,1.02,1.07,0.803,0.913,0.838,0.809,0.797,0.717,0.636,0.237,0.135,0.143,0.325,0.365,0.262,0.237,0.167
COR-L23,0.948,0.94,0.91,0.729,0.512,0.976,0.91,0.754,0.529,0.297,0.788,0.801,0.619,0.149,0.11,0.207,0.205,0.181,0.122,0.0744
COR-L 105,0.986,0.993,0.902,0.897,0.578,0.88,1.02,0.681,0.792,0.572,0.8,0.615,0.424,0.283,0.231,0.343,0.331,0.323,0.247,0.241
Calu-6,0.911,0.919,0.793,0.789,0.415,0.988,0.948,0.943,0.967,0.601,0.946,0.708,0.317,0.101,0.109,,,,,
ChaGo-K-1,0.872,0.993,0.835,0.745,0.579,,,,,,,,,,,0.22,0.174,0.221,0.184,0.158
EBC-1,0.0979,0.108,0.108,0.0821,0.101,0.957,0.993,0.896,0.918,0.835,0.812,0.628,0.182,0.102,0.13,,,,,
EKVX,0.903,0.893,,0.749,0.747,1.13,1.07,0.849,0.847,0.893,0.949,0.653,0.471,0.169,0.127,0.408,0.457,0.299,0.155,0.127
EMC-BAC-2,1.07,1.06,1.02,1.03,0.898,0.84,0.799,0.801,0.804,0.717,0.805,0.547,0.237,0.179,0.163,0.254,0.254,0.208,0.212,0.239
EPLC-272H,0.785,0.852,0.727,0.611,0.602,1.17,1.32,1.01,1.11,1.01,1.14,1.13,0.147,0.183,0.216,0.249,0.159,0.0675,0.132,0.133
H3255,0.905,0.872,0.875,0.898,0.836,0.971,0.941,0.949,0.87,0.722,0.927,0.593,0.354,0.201,0.257,0.671,0.374,0.339,0.236,0.286
HARA,1.05,1.03,0.83,0.798,0.744,0.94,0.985,0.703,0.853,0.904,0.568,0.455,0.481,0.092,0.0886,0.101,0.0797,0.0797,0.0484,0.065
HCC-15,1.05,1.04,0.969,0.845,0.715,0.9,0.892,0.888,0.812,0.7,0.558,0.249,0.16,0.0968,0.104,0.266,0.167,0.129,0.0769,0.0852
HCC-44,,,,,,0.668,0.685,0.606,0.478,0.543,0.561,0.219,0.199,0.156,0.129,0.816,0.471,0.186,0.231,0.272
HCC-78,0.616,0.555,0.54,0.526,0.545,0.509,0.461,0.416,0.46,0.511,0.556,0.355,0.628,0.135,0.147,0.564,0.458,0.453,0.172,0.141
HCC-366,0.91,0.877,0.957,0.918,0.759,0.848,0.595,0.48,0.437,0.265,0.838,0.933,0.513,0.0247,0.0197,0.151,0.173,0.159,0.0404,0.0333

Cell Line,relative viability ([1]; first compound 0.08 µM),relative viability ([1]; first compound 0.253 µM),relative viability ([1]; first compound 0.8 µM),relative viability ([1]; first compound 2.53 µM),relative viability ([1]; first compound 8 µM),relative viability ([2]; first compound 0.08 µM),relative viability ([2]; first compound 0.253 µM),relative viability ([2]; first compound 0.8 µM),relative viability ([2]; first compound 2.53 µM),relative viability ([2]; first compound 8 µM),relative viability ([3]; first compound 0.04 µM),relative viability ([3]; first compound 0.1265 µM),relative viability ([3]; first compound 0.4 µM),relative viability ([3]; first compound 1.265 µM),relative viability ([3]; first compound 4 µM),relative viability ([4]; first compound 0.04 µM),relative viability ([4]; first compound 0.1265 µM),relative viability ([4]; first compound 0.4 µM),relative viability ([4]; first compound 1.265 µM),relative viability ([4]; first compound 4 µM)
HCC-827,1.05,1.03,1.01,0.995,0.912,1.04,0.891,0.857,0.936,0.955,0.801,0.527,0.468,0.228,0.211,0.415,0.347,0.408,0.165,0.167
HOP-62,0.984,1,1.07,1.04,0.994,0.982,0.996,0.949,0.947,0.801,0.433,0.272,0.151,0.0627,0.0635,0.359,0.198,0.0852,0.049,0.0903
IA-LM,1.25,1.06,1.21,1.19,1,0.617,0.766,0.632,0.582,0.461,0.252,0.197,0.155,0.0583,0.0889,,,,,
LC-2-ad,1.03,1.04,0.994,0.874,0.679,0.903,0.859,0.808,0.752,0.721,0.854,0.533,0.281,0.162,0.13,0.434,0.344,0.362,0.218,0.198
LCLC-97TM1,1,0.956,0.892,0.868,0.765,0.177,,0.17,0.195,0.192,0.191,0.23,0.156,0.103,0.131,0.222,0.158,0.172,0.121,0.112
LCLC-103H,0.752,0.83,0.806,0.703,0.632,1.15,1.1,1.05,1.21,1.04,1.33,1.21,1.2,0.316,0.355,0.493,0.533,0.364,0.168,0.137
LK-2,1.46,1.24,1.17,1.01,1.26,0.634,0.765,0.458,0.428,0.726,0.497,0.46,0.289,0.198,0.203,0.175,0.182,0.189,0.209,0.174
LOU-NH91,0.991,0.998,0.955,0.921,0.922,1.11,0.9,0.924,0.946,0.891,1.01,1.14,0.961,0.561,0.472,0.641,0.689,0.502,0.336,0.342
NCI-H522,,,,,,,,,,,,,,,,0.503,0.502,0.458,0.363,0.304
NCI-H1299,1.13,1.09,1.04,1.05,0.996,1.02,0.993,0.953,0.965,0.956,0.903,0.768,0.441,0.189,0.186,,,,,
NCI-H1563,0.931,0.954,0.92,0.929,0.888,1.32,1.13,1.22,1.26,1.04,1.73,1.18,0.753,0.606,0.6,,,,,
NCI-H1623,0.959,0.919,0.884,0.747,0.725,,,,,,,,,,,0.42,0.372,0.398,0.203,0.195
NCI-H1648,,,,,,,,,,,,,,,,0.417,0.164,0.247,0.203,0.279
NCI-H1650,1.51,1.25,0.986,0.982,0.779,,,,,,,,,,,0.319,0.299,0.341,0.203,0.164
NCI-H1703,0.446,0.397,0.34,0.403,0.37,1.84,1.04,0.829,1.32,0.813,0.235,0.241,0.157,0.111,0.146,,,,,
NCI-H1792,,,,,,0.61,0.518,0.528,0.393,0.503,0.548,0.664,0.804,0.184,0.124,,,,,
NCI-H2170,0.994,0.527,1.02,0.942,0.468,,,,,,,,,,,0.722,0.407,0.325,0.151,0.155
NCI-H2342,0.949,0.961,0.993,0.865,0.785,,,,,,,,,,,0.416,0.455,0.533,0.445,0.408
SW 900,1.08,0.789,0.677,0.769,0.682,,,,,,,,,,,0.625,0.474,0.435,0.171,0.114
